Here are results for nine molecules from patent publication US20150105252A1, “SUBSTITUTED PYRAZOLES AS HERBICIDES” (E I DU PONT DE NEMOURS AND COMPANY, priority 2013, published 2015).

Assay in all cases: Test C flooded paddy test
Common to all, as to conditions: Flood

In one experiment the test system is rice. The experiment is classed as in vivo, Oryza sativa. The procedure, abridged: (§1)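 Pots were flooded to 3 cm above the soil surface at treatment, compound applied directly to the paddy water, and that depth held throughout. Plants were kept in a greenhouse for 13 to 15 days, then visually rated against untreated controls.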
Another experiment has as its system ducksalad. The experiment is classed as in vivo, Heteranthera limosa. The method, boiled down:
as §1

A further experiment has as its system barnyardgrass. The experiment is classed as in vivo, Echinochloa crus-galli. The procedure, abridged: as §1
In another experiment the test system is sedge, umbrella. It counts as in vivo, Cyperus difformis. The procedure, abridged:
as §1

Where [1] appears, read: 31 g ai/ha, scale 0 to 100 (0 no effect, 100 complete control).
Setting [2] is: 62 g ai/ha, scale 0 to 100 (0 no effect, 100 complete control).
[3] abbreviates: 125 g ai/ha, scale 0 to 100 (0 no effect, 100 complete control).

Consider `CCCc1cc(C(=O)NOC(C)C)nn1Cc1cc(C(F)(F)F)nn1C` [Compound 203], for which the “Plant response rating, Rice” value is given as 0 with rice (setting [1]); 0 in the experiment on rice (setting [2]); 0 in the experiment on rice (setting [3]); 0 in the experiment on rice (250 g ai/ha, scale 0 to 100). In addition, the “Plant response rating, Ducksalad” value was determined as 0 with ducksalad (setting [1]); 0 with ducksalad (setting [2]); 20 in the experiment with ducksalad (setting [3]); 80 in the experiment with ducksalad (250 g ai/ha, scale 0 to 100). The “Plant response rating, Barnyardgrass” value turned out to be 0 with barnyardgrass (setting [1]); 0 in the experiment with barnyardgrass (setting [2]); 0 in the experiment on barnyardgrass (setting [3]); 0 in the experiment with barnyardgrass (250 g ai/ha, scale 0 to 100). For the same molecule, the “Plant response rating, Sedge, Umbrella” value in the experiment on sedge, umbrella (setting [1]) is recorded as 40; in the experiment on sedge, umbrella (setting [2]), 40; with sedge, umbrella (setting [3]), 70; in the experiment with sedge, umbrella (250 g ai/ha, scale 0 to 100), 85.
As for `CCCNC(=O)c1cc(CC)n(Cc2nc(C(F)(F)F)nn2C)n1` [Compound 109], the “Plant response rating, Rice” value with rice (setting [1]) is on record as 0; in the experiment on rice (setting [2]), 0; in the experiment on rice (125 g ai/ha, scale 0 to 100) it was 20; with rice (250 g ai/ha, scale 0 to 100) it was 35. The “Plant response rating, Ducksalad” value in the experiment with ducksalad (setting [1]) is 30; with ducksalad (setting [2]) it was 40; in the experiment on ducksalad (125 g ai/ha, scale 0 to 100), 75; in the experiment with ducksalad (250 g ai/ha, scale 0 to 100), 85. The “Plant response rating, Barnyardgrass” value in the experiment on barnyardgrass (setting [1]) is given as 0; with barnyardgrass (setting [2]) it was 0; in the experiment with barnyardgrass (125 g ai/ha, scale 0 to 100) it was 35; with barnyardgrass (250 g ai/ha, scale 0 to 100) it was 40. Moreover, the “Plant response rating, Sedge, Umbrella” value with sedge, umbrella (setting [1]) is listed as 30; in the experiment on sedge, umbrella (setting [2]), 60; in the experiment with sedge, umbrella (125 g ai/ha, scale 0 to 100), 75; in the experiment on sedge, umbrella (250 g ai/ha, scale 0 to 100), 85.
In the case of `CCOc1cc(C(=O)NCC(F)(F)F)nn1Cc1ccnc(OC(F)F)c1` [Compound 128], the “Plant response rating, Rice” value in the experiment with rice (setting [1]) stood at 0; in the experiment with rice (setting [2]), 0; in the experiment with rice (125 g ai/ha, scale 0 to 100) it was 0; in the experiment on rice (250 g ai/ha, scale 0 to 100), 0. In addition, the “Plant response rating, Ducksalad” value in the experiment with ducksalad (setting [1]) came to 40; in the experiment on ducksalad (setting [2]), 75; with ducksalad (125 g ai/ha, scale 0 to 100), 80; in the experiment with ducksalad (250 g ai/ha, scale 0 to 100) it was 90. Moreover, the “Plant response rating, Barnyardgrass” value is 0 with barnyardgrass (setting [1]); 0 in the experiment with barnyardgrass (setting [2]); 35 in the experiment with barnyardgrass (125 g ai/ha, scale 0 to 100). The “Plant response rating, Sedge, Umbrella” value in the experiment with sedge, umbrella (setting [1]) is listed as 30; with sedge, umbrella (setting [2]), 50; in the experiment on sedge, umbrella (125 g ai/ha, scale 0 to 100), 75; in the experiment with sedge, umbrella (250 g ai/ha, scale 0 to 100), 85.
Consider `CCCNC(=O)c1cc(CCF)n(Cc2ccnc(C(F)(F)F)c2)n1` [Compound 177], for which the “Plant response rating, Rice” value with rice (setting [1]) is given as 0; in the experiment with rice (setting [2]) it was 0; with rice (setting [3]), 0; in the experiment with rice (250 g ai/ha, scale 0 to 100), 0. For the same molecule, the “Plant response rating, Ducksalad” value is listed as 0 with ducksalad (setting [1]); 50 in the experiment with ducksalad (setting [2]); 75 in the experiment on ducksalad (setting [3]); 85 in the experiment with ducksalad (250 g ai/ha, scale 0 to 100). Besides, the “Plant response rating, Barnyardgrass” value is recorded as 0 in the experiment on barnyardgrass (setting [1]); 0 in the experiment with barnyardgrass (setting [2]); 0 in the experiment on barnyardgrass (setting [3]); 0 in the experiment on barnyardgrass (250 g ai/ha, scale 0 to 100). Also, the “Plant response rating, Sedge, Umbrella” value was 50 in the experiment on sedge, umbrella (setting [1]); 75 with sedge, umbrella (setting [2]); 85 with sedge, umbrella (setting [3]); 90 in the experiment on sedge, umbrella (250 g ai/ha, scale 0 to 100).
Take `CCONC(=O)c1cc(CC)n(Cc2ccnc(C(F)(F)F)c2)n1` [Compound 77]: the “Plant response rating, Rice” value in the experiment with rice (setting [1]) stood at 0; in the experiment with rice (setting [2]), 0; with rice (125 g ai/ha, scale 0 to 100), 0; in the experiment with rice (250 g ai/ha, scale 0 to 100), 0. Besides, the “Plant response rating, Ducksalad” value in the experiment on ducksalad (setting [1]) worked out at 20; in the experiment with ducksalad (setting [2]), 40; with ducksalad (125 g ai/ha, scale 0 to 100) it was 70; with ducksalad (250 g ai/ha, scale 0 to 100), 75. Also, the “Plant response rating, Barnyardgrass” value with barnyardgrass (setting [1]) was found to be 0; in the experiment with barnyardgrass (setting [2]), 0; with barnyardgrass (125 g ai/ha, scale 0 to 100) it was 20; in the experiment on barnyardgrass (250 g ai/ha, scale 0 to 100), 20. The “Plant response rating, Sedge, Umbrella” value in the experiment on sedge, umbrella (setting [1]) amounted to 0; in the experiment on sedge, umbrella (setting [2]) it was 50; with sedge, umbrella (125 g ai/ha, scale 0 to 100), 60; with sedge, umbrella (250 g ai/ha, scale 0 to 100) it was 75.
As to `CCONC(=O)c1cc(CC)n(Cc2cccc(OC(F)(F)F)c2)n1` [Compound 72], the “Plant response rating, Rice” value in the experiment with rice (setting [1]) amounted to 0; in the experiment with rice (setting [2]), 0; with rice (125 g ai/ha, scale 0 to 100) it was 0; in the experiment on rice (250 g ai/ha, scale 0 to 100), 30. Besides, the “Plant response rating, Ducksalad” value is reported as 0 in the experiment with ducksalad (setting [1]); 70 with ducksalad (setting [2]); 75 with ducksalad (125 g ai/ha, scale 0 to 100); 75 in the experiment with ducksalad (250 g ai/ha, scale 0 to 100). Moreover, the “Plant response rating, Barnyardgrass” value in the experiment with barnyardgrass (setting [1]) was determined as 0; with barnyardgrass (setting [2]), 20; in the experiment with barnyardgrass (125 g ai/ha, scale 0 to 100), 20; with barnyardgrass (250 g ai/ha, scale 0 to 100) it was 20. Moreover, the “Plant response rating, Sedge, Umbrella” value is listed as 50 with sedge, umbrella (setting [1]); 60 in the experiment with sedge, umbrella (setting [2]); 65 in the experiment with sedge, umbrella (125 g ai/ha, scale 0 to 100); 65 in the experiment on sedge, umbrella (250 g ai/ha, scale 0 to 100).
On to `CCNC(=O)c1cc(CCF)n(Cc2ccnc(C(F)(F)F)c2)n1` [Compound 178], for which the “Plant response rating, Rice” value is 0 with rice (setting [1]); 0 with rice (setting [2]); 0 with rice (setting [3]); 20 with rice (250 g ai/ha, scale 0 to 100). In addition, the “Plant response rating, Ducksalad” value in the experiment on ducksalad (setting [1]) is listed as 0; in the experiment with ducksalad (setting [2]) it was 30; in the experiment with ducksalad (setting [3]), 60; in the experiment with ducksalad (250 g ai/ha, scale 0 to 100) it was 90. For the same molecule, the “Plant response rating, Barnyardgrass” value in the experiment with barnyardgrass (setting [1]) was 0; with barnyardgrass (setting [2]) it was 0; in the experiment on barnyardgrass (setting [3]), 0; with barnyardgrass (250 g ai/ha, scale 0 to 100), 20. Besides, the “Plant response rating, Sedge, Umbrella” value was 0 in the experiment on sedge, umbrella (setting [1]); 0 with sedge, umbrella (setting [2]); 40 with sedge, umbrella (setting [3]); 80 in the experiment on sedge, umbrella (250 g ai/ha, scale 0 to 100).
As for `CCCc1cc(C(=O)NCC(F)(F)F)nn1Cc1ccnc(OC(F)F)c1` [Compound 127], the “Plant response rating, Rice” value is on record as 0 with rice (setting [1]); 0 in the experiment on rice (setting [2]); 0 in the experiment on rice (125 g ai/ha, scale 0 to 100); 0 with rice (250 g ai/ha, scale 0 to 100). Besides, the “Plant response rating, Ducksalad” value turned out to be 30 with ducksalad (setting [1]); 40 in the experiment on ducksalad (setting [2]); 60 with ducksalad (125 g ai/ha, scale 0 to 100); 80 in the experiment with ducksalad (250 g ai/ha, scale 0 to 100). Further, the “Plant response rating, Barnyardgrass” value is recorded as 0 in the experiment on barnyardgrass (setting [1]); 0 with barnyardgrass (setting [2]); 15 with barnyardgrass (125 g ai/ha, scale 0 to 100); 30 in the experiment on barnyardgrass (250 g ai/ha, scale 0 to 100). In addition, the “Plant response rating, Sedge, Umbrella” value was determined as 50 with sedge, umbrella (setting [1]); 60 with sedge, umbrella (setting [2]); 70 in the experiment with sedge, umbrella (125 g ai/ha, scale 0 to 100); 95 with sedge, umbrella (250 g ai/ha, scale 0 to 100).
`CCCc1cc(C(=O)NC2CC2)nn1Cc1ccnc(OC(F)F)c1` [Compound 205]: the “Plant response rating, Rice” value was 0 with rice (setting [2]); 0 in the experiment with rice (setting [3]); 0 in the experiment on rice (250 g ai/ha, scale 0 to 100); 35 in the experiment on rice (500 g ai/ha, scale 0 to 100). For the same molecule, the “Plant response rating, Ducksalad” value turned out to be 75 in the experiment on ducksalad (setting [2]); 90 in the experiment on ducksalad (setting [3]); 100 in the experiment with ducksalad (250 g ai/ha, scale 0 to 100); 100 in the experiment on ducksalad (500 g ai/ha, scale 0 to 100). Moreover, the “Plant response rating, Barnyardgrass” value with barnyardgrass (setting [2]) amounted to 0; in the experiment with barnyardgrass (setting [3]), 25; in the experiment with barnyardgrass (250 g ai/ha, scale 0 to 100) it was 35; in the experiment on barnyardgrass (500 g ai/ha, scale 0 to 100), 60. In addition, the “Plant response rating, Sedge, Umbrella” value in the experiment on sedge, umbrella (setting [2]) was determined as 75; with sedge, umbrella (setting [3]) it was 95; in the experiment with sedge, umbrella (250 g ai/ha, scale 0 to 100) it was 100; with sedge, umbrella (500 g ai/ha, scale 0 to 100) it was 100.
